From patent US20100105758A1 (Centre de Recherche Public de la Sante, priority 2006, published 2010)
“Also recorded” adds a separate entry of the source.

Experiments:
[1] = system: THP-1-derived macrophages; assay: MMP-9 secretion by THP-1-derived macrophages, gelatin zymography and densitometry; format: cell-based; conditions: PMA 48 hours; for MMP-9 secretion (zymography), modulators of Ado metabolism: added alone or in combination, Ado 10 μM, EHNA 10 μM, DIP 10 μM
Method: Cells were incubated for 15 min with increasing concentrations of Ado and 10 μM EHNA before differentiation with 150 nM PMA for 48 hours. […] Concentrations of 10 μM Ado and 10 μM EHNA were used in further experiments. […] FIG. 2. […] THP-1 cells were treated for 15 min with Ado and 10 μM EHNA or vehicle before differentiation to macrophages with 150 nM PMA for 48 hours. EHNA, which inhibits Ado deaminase, and DIP, which inhibits Ado transport, were used to enhance endogenous Ado concentration. Gelatinase activity was measured in cell-free conditioned medium by zymography and densitometry. A. A representative zymogram is shown. […] C. Time-course experiment. […] FIG. 3. […] A. THP-1 cells were treated for 15 min with 10 μM Ado and 10 μM EHNA or vehicle before differentiation to macrophages with 150 nM PMA for 48 hours. […] B. THP-1 cells were treated for 15 min with 0.1, 1 or 10 μM of Ado receptors agonists (CPA, A1-specific; CGS21680, A2a-specific; IB-MECA, A3-specific). […] Gelatinase activity was assessed in conditioned medium. […] C. […] Cells were transfected with siRNA specific for A2a, A2b or A3 Ado receptors, incubated for 48 hours to achieve down-regulation of Ado receptors expression, treated for 15 min with 10 μM Ado and 10 μM EHNA or vehicle before differentiation to macrophages with 150 nM PMA for 48 hours. Conditioned medium was analysed by gelatin zymography. […] Cell culture. All cell culture reagents were from Lonza (Verviers, Belgium) unless specified otherwise. Peripheral venous blood was obtained from healthy volunteers. Peripheral blood mononuclear cells were obtained by Ficoll gradient. Monocytes were purified by negative selection using the Monocyte Isolation Kit II (Myltenyi Biotec GmbH, Bergisch Gladbach, Germany). […] Macrophages were incubated for 15 minutes with Ado/EHNA (10 μmol/L) or vehicle, then LPS (100 ng/ml) or vehicle was added and cells were incubated for another 24 hours before harvesting. Cells from the monocyte-like line THP-1 (ATCC, LGC Promochem, Teddington, UK) were propagated at 37° C.-5% CO2 in RPMI 1640 medium supplemented with L-glutamine (2 mM), Penicillin (100 Units/ml), Streptomycin (100 μg/ml), non-essential amino acids solution (1 μM), sodium pyruvate (1 mM), and 10% heat-inactivated fetal calf serum (FCS) (Eurobio, Les Ulys, France). For experiments, FCS in culture medium was reduced to 1%. Cells were treated for 15 min with EHNA vehicle (DMSO), Ado (0.01 to 100 μM), Ado receptors agonists (0.1 to 10 μM), EHNA (10 μM) or Dipyridamole (DIP) (10 μM). Cells were then differentiated into macrophages with 150 nM phorbol myristate actetate (PMA) for 24 hours. Macrophages were subsequently treated with LPS (1 to 1000 ng/ml), fMLP (10^−7 M) or H2O2 (10 mM) for another 24 hours. Analysis of gelatinase activity. Gelatin zymography was performed on culture supernatants to assess secreted MMP-9 activity. Briefly, conditioned medium was loaded on SDS-polyacrylamide gels containing 0.2% gelatin under non reducing conditions. After electrophoresis, gels were washed and incubated overnight at 37° C. in assay buffer (50 mM Tris-HCl, pH 7.6, 200 mM NaCl, 5 mM CaCl2, and 0.02% Brij35). Subsequently, gels were stained in 0.1% Coomassie Blue and destained in 25% ethanol/8% acetic acid. Densitometry was achieved using the Gel Logic 2200 Digital Imaging system and Aida Software (Kodak, Zavemtem, Belgium).

THP-1 monocytes = assay: Migration assay, modified Boyden chamber coated with gelatin B, MCP-1 gradient; format: cell-based; conditions: pre-incubation with TIMP-1 10 ng/mL or GM6001 10 nM or 1 μM
Method: Infiltration of monocytes/macrophages into the myocardium is a hallmark of ventricular remodelling post MI. Cell migration is facilitated by degradation of the ECM by MMP-9. We therefore tested whether the increase in MMP-9 secretion by Ado could improve monocytes migration along a gradient of MCP-1. For this purpose, the top of a modified Boyden chamber was coated with gelatin B and MCP-1 was added in the bottom compartment. Monocytes were treated with Ado before seeding on the microporous membrane of the chamber. […] This effect was inhibited by the synthetic MMP inhibitor GM6001 and the endogenous MMP-9 inhibitor TIMP-1 (FIG. 4).
FIG. 4. Ado increases monocytes migratory capacity. THP-1 monocytes were treated for 24 hours with 10 μM Ado and 10 μM EHNA or vehicle before seeding on the microporous membrane of a modified Boyden chamber pre-coated with gelatin B. 10 ng/mL MCP-1 was added in the bottom compartment. When specified, cells were pre-incubated with TIMP-1 (10 ng/mL) or GM6001 (10 nM or 1 μM) before seeding on the membrane. Cell migration was quantified by fluorescence after 24 hours. […] Results are mean±SD (n=5). * P<0.05 vs no Ado.
Migration assay. Migratory capacity of THP-1 monocytes was studied using a Transwell® system with polycarbonate microporous membranes (5 μm pore size, 24-well chamber, Costar, Lowell, USA). Membranes were coated with a 2% gelatin B solution and allowed to dry at room temperature for 2 hours. MCP-1 (10 ng/mL) was added in the bottom compartment. THP-1 monocytes were cultured in serum- and antibiotic-free medium with or without 10 μM Ado and 10 μM EHNA for 24 hours. Cells were pre-incubated for 30 min with GM 6001 (10 nM or 1 μM) or TIMP-1 (10 ng/mL) before seeding into the upper compartment at a concentration of 7.5×10^4 cells per well. After 24 hours, cells that migrated through the membrane were detached, lysed and stained by the CyQuant GR® dye (Invitrogen) for 15 min. Fluorescence was read with a POLARstar Optima (BMG LABTECH, Champigny-sur-Marne, France) microplate reader (Xex=492 nm, kem=520 nm).

MMPs = conditions: given 24-72 hours post MI; cited from earlier work

In the case of CCCCCC[C@@H]([C@@H](C)O)n1cnc2c(N)ncnc21 (racemic) [EHNA], the “MMP-9 secretion (zymography), modulators of Ado metabolism” value [1] is reported as “triggered MMP-9 secretion”.

With OCCN(CCO)c1nc(N2CCCCC2)c2nc(N(CCO)CCO)nc(N3CCCCC3)c2n1 [DIP, Dipyridamole] the “MMP-9 secretion (zymography), modulators of Ado metabolism” value [1] was “triggered MMP-9 secretion”.

With CNC(=O)[C@H](Cc1c[nH]c2ccccc12)NC(=O)[C@@H](CC(=O)NO)CC(C)C [GM6001, (R)-N-4-Hydroxy-N1-[(S)-2-(1H-indol-3-yl)-1-methylcarbamoly-ethyl]-2-isobutyl-succinamide] the “inhibition of Ado-enhanced cell migration” value (THP-1 monocytes) was “partly prevented; also recorded: inhibited”.

With CNC(=O)[C@H]1O[C@@H](n2cnc3c(NCc4cccc(I)c4)ncnc32)[C@H](O)[C@@H]1O [IB-MECA, 1-deoxy-1-[6-[[(3-iodophenyl)methyl]amino]-9H-purine-9-yl]-N-methyl-Dribofuranuronamide] the “MMP-9 secretion with Ado receptor agonists” value ([1]; 0.1, 1 or 10 μM agonist for 15 min, EHNA omitted) was “increase MMP-9 secretion to the same extent as Ado”.

In the case of COc1ccc(C(=O)Nc2ccc(S(=O)(=O)NC(CC#CCN3CCOCC3)C(=O)O)cc2)cc1 (stereo not shown) [PG-116800], the “outcome after MI” value (MMPs) is listed as “did not improve outcome” and the “prevention of LV remodelling after MI” value (MMPs) is listed as “failed to prevent LV remodelling”.

With “TIMP-1: recombinant human protein TIMP-1 (R&D Systems), endogenous MMP-9 inhibitor” the “inhibition of Ado-enhanced cell migration” value (THP-1 monocytes) was “partly prevented; also recorded: inhibited”.
